The record followed here is patent US8143263B2, “Therapeutic agents” (Astrazeneca AB, priority 2008, dated 2012).

The assay deals with T1, recombinant human pancreatic GLK (Homo sapiens, UniProt P35557).
T1 sequence (P35557 1-465): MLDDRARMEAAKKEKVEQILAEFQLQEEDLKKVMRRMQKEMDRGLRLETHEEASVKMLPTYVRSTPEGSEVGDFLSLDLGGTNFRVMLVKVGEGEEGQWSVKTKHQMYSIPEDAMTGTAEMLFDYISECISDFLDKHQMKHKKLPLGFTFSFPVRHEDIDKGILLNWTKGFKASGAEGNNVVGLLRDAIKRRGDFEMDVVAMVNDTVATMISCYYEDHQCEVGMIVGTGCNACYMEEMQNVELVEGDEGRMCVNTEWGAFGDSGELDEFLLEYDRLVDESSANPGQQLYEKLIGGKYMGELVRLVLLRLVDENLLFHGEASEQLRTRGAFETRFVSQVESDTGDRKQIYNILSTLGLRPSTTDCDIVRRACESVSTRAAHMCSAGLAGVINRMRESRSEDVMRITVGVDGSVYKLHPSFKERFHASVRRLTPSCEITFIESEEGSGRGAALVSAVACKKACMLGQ
As to the kind of experiment: biochemical.
On to `COC[C@H](Oc1ncnc2c1cnn2-c1ccccc1)C(=O)Nc1ccc(C)cn1` [Example 107, (S)-3-Methoxy-N-(5-methylpyridin-2-yl)-2-(1-phenyl-1H-pyrazolo[3,4-d]pyrimidin-4-yloxy)propanamide], for which the 50% effective concentration (EC50) (as a rule, the midpoint of the concentration-response curve) was 3600 nM.

As for `CC(C)OCC(Oc1ncnc2c1cnn2-c1ccccc1Cl)C(=O)Nc1cnccn1` (stereo not drawn) [Example 108, 2-[1-(2-Chlorophenyl)pyrazolo[4,5-e]pyrimidin-4-yl]oxy-3-isopropoxy-N-pyrazin-2-yl-propanamide], the EC50 came out at 1300 nM.

Take `Cc1nnc(NC(=O)C(COC(C)C)Oc2ncnc3c2cnn3-c2ccccc2Cl)s1` (stereo not drawn) [Example 109, 2-[1-(2-chlorophenyl)pyrazolo[4,5-e]pyrimidin-4-yl]oxy-3-isopropoxy-N-(5-methyl-1,3,4-thiadiazol-2-yl)propanamide]: the EC50 was 3200 nM.

In the case of `Cc1cc(NC(=O)C(COC(C)C)Oc2ncnc3c2cnn3-c2ccccc2Cl)no1` (stereo not drawn) [Example 110, 2-[1-(2-chlorophenyl)pyrazolo[4,5-e]pyrimidin-4-yl]oxy-3-isopropoxy-N-(5-methylisoxazol-3-yl)propanamide], the 50% effective concentration (EC50) amounted to 1000 nM.

As to `Cc1cnc(NC(=O)C(COC(C)C)Oc2ncnc3c2cnn3-c2ccccc2Cl)s1` (stereo not drawn) [Example 111, 2-[1-(2-chlorophenyl)pyrazolo[4,5-e]pyrimidin-4-yl]oxy-3-isopropoxy-N-(5-methylthiazol-2-yl)propanamide], the EC50 was found to be 330 nM.

As for `Cc1cnc(NC(=O)[C@H](COC(C)C)Oc2ncnc3c2cnn3-c2ccccc2Cl)s1` [Example 111a, (2S)-2-[1-(2-chlorophenyl)pyrazolo[4,5-e]pyrimidin-4-yl]oxy-3-isopropoxy-N-(5-methylthiazol-2-yl)propanamide], the 50% effective concentration (EC50) worked out at 210 nM.

For the compound `CC(C)OCC(Oc1ncnc2c1cnn2-c1ccccc1Cl)C(=O)Nc1ccc(F)cn1` (stereo not drawn) [Example 112, 2-[1-(2-chlorophenyl)pyrazolo[4,5-e]pyrimidin-4-yl]oxy-N-(5-fluoro-2-pyridyl)-3-isopropoxy-propanamide], the EC50 turned out to be 260 nM.

Turning to `CC(C)OC[C@H](Oc1ncnc2c1cnn2-c1ccccc1Cl)C(=O)Nc1ccc(F)cn1` [Example 112a, (2S)-2-[1-(2-chlorophenyl)pyrazolo[4,5-e]pyrimidin-4-yl]oxy-N-(5-fluoro-2-pyridyl)-3-isopropoxy-propanamide], the concentration giving a half-maximal response (EC50) stood at 220 nM.

On to `CC(C)OCC(Oc1ncnc2c1cnn2-c1ccccc1Cl)C(=O)Nc1ccc(C#N)cn1` (stereo not drawn) [Example 113, 2-[1-(2-chlorophenyl)pyrazolo[4,5-e]pyrimidin-4-yl]oxy-N-(5-cyano-2-pyridyl)-3-isopropoxy-propanamide], for which the EC50 was 300 nM.

Consider `CC(C)OC[C@H](Oc1ncnc2c1cnn2-c1ccccc1Cl)C(=O)Nc1ccc(C#N)cn1` [Example 113a, (2S)-2-[1-(2-chlorophenyl)pyrazolo[4,5-e]pyrimidin-4-yl]oxy-N-(5-cyano-2-pyridyl)-3-isopropoxy-propanamide], for which the EC50 came out at 300 nM.

Consider `CC(C)OCC(Oc1ncnc2c1cnn2-c1ccccc1Cl)C(=O)Nc1ncns1` (stereo not drawn) [Example 114, 2-[1-(2-chlorophenyl)pyrazolo[4,5-e]pyrimidin-4-yl]oxy-3-isopropoxy-N-(1,2,4-thiadiazol-5-yl)propanamide], for which the 50% effective concentration (EC50) stood at 2100 nM.

Take `CC(C)OCC(Oc1ncnc2c1cnn2-c1ccccc1Cl)C(=O)Nc1ccc(Cl)cn1` (stereo not drawn) [Example 115, 2-[1-(2-chlorophenyl)pyrazolo[4,5-e]pyrimidin-4-yl]oxy-N-(5-chloro-2-pyridyl)-3-isopropoxy-propanamide]: the half-maximal effective concentration (EC50) was 110 nM.

With `CC(C)OC[C@H](Oc1ncnc2c1cnn2-c1ccccc1Cl)C(=O)Nc1ccc(Cl)cn1` [Example 115a, (2S)-2-[1-(2-chlorophenyl)pyrazolo[4,5-e]pyrimidin-4-yl]oxy-N-(5-chloro-2-pyridyl)-3-isopropoxy-propanamide], the concentration for a half-maximal effect (EC50) was found to be 98 nM.

As for `Cc1ccnc(NC(=O)C(COC(C)C)Oc2ncnc3c2cnn3-c2ccccc2Cl)c1` (stereo not drawn) [Example 116, 2-[1-(2-chlorophenyl)pyrazolo[4,5-e]pyrimidin-4-yl]oxy-3-isopropoxy-N-(4-methyl-2-pyridyl)propanamide], the EC50 worked out at 2300 nM.

`CC(C)OCC(Oc1ncnc2c1cnn2-c1ccccc1Cl)C(=O)Nc1nncs1` (stereo not drawn) [Example 117, 2-[1-(2-chlorophenyl)pyrazolo[4,5-e]pyrimidin-4-yl]oxy-3-isopropoxy-N-(1,3,4-thiadiazol-2-yl)propanamide]: the EC50 came out at 6800 nM.

As for `CC(C)OCC(Oc1ncnc2c1cnn2-c1ccccc1Cl)C(=O)Nc1ccccn1` (stereo not drawn) [Example 118, 2-[1-(2-chlorophenyl)pyrazolo[4,5-e]pyrimidin-4-yl]oxy-3-isopropoxy-N-(2-pyridyl)propanamide], the EC50 turned out to be 150 nM.

On to `CC(C)OC[C@H](Oc1ncnc2c1cnn2-c1ccccc1Cl)C(=O)Nc1ccccn1` [Example 118a, (2S)-2-[1-(2-chlorophenyl)pyrazolo[4,5-e]pyrimidin-4-yl]oxy-3-isopropoxy-N-(2-pyridyl)propanamide], for which the EC50 came to 120 nM.

As to `CC(C)OCC(Oc1ncnc2c1cnn2-c1ccccc1Cl)C(=O)Nc1ccon1` (stereo not drawn) [Example 119, 2-[1-(2-chlorophenyl)pyrazolo[4,5-e]pyrimidin-4-yl]oxy-3-isopropoxy-N-isoxazol-3-yl-propanamide], the EC50 was 1200 nM.

For `CC(C)OCC(Oc1ncnc2c1cnn2-c1ccccc1Cl)C(=O)Nc1ccncn1` (stereo not drawn) [Example 120, 2-[1-(2-chlorophenyl)pyrazolo[4,5-e]pyrimidin-4-yl]oxy-3-isopropoxy-N-pyrimidin-4-yl-propanamide], the half-maximal effective concentration (EC50) was determined as 540 nM.

For `Cc1ccc(NC(=O)[C@H](COC(C)C)Oc2ncnc3c2cnn3-c2ncccc2C)nc1` [Example 125, (2S)-3-Isopropoxy-N-(5-methylpyridin-2-yl)-2-(1-(3-methylpyridin-2-yl)-1H-pyrazolo[3,4-d]pyrimidin-4-yloxy)propanamide], the half-maximal effective concentration (EC50) came out at 310 nM.

Turning to `Cc1ccc(NC(=O)[C@H](COC(C)C)Oc2ncnc3c2cnn3-c2ncccc2C(F)(F)F)nc1` [Example 126, (2S)-3-Isopropoxy-N-(5-methylpyridin-2-yl)-2-(1-(3-(trifluoromethyl)pyridin-2-yl)-1H-pyrazolo[3,4-d]pyrimidin-4-yloxy)propanamide], the EC50 came out at 570 nM.

In the case of `Cc1ccc(NC(=O)[C@H](COC(C)C)Oc2ncnc3c2cnn3-c2ncccc2Cl)nn1` [Example 127, (2S)-2-[1-(3-chloro-2-pyridyl)pyrazolo[4,5-e]pyrimidin-4-yl]oxy-3-isopropoxy-N-(6-methylpyridazin-3-yl)propanamide], the EC50 was determined as 6000 nM.

On to `Cc1cccnc1-n1ncc2c(O[C@@H](COC(C)C)C(=O)Nc3ccc(C#N)cn3)ncnc21` [Example 127a, (2S)—N-(5-cyanopyridin-2-yl)-3-isopropoxy-2-(1-(3-methylpyridin-2-yl)-1H-pyrazolo[3,4-d]pyrimidin-4-yloxy)propanamide], for which the concentration giving a half-maximal response (EC50) was determined as 1100 nM.

Regarding `Cc1cccnc1-n1ncc2c(O[C@@H](COC(C)C)C(=O)Nc3ccc(Cl)cn3)ncnc21` [Example 127b, (2S)—N-(5-chloropyridin-2-yl)-3-isopropoxy-2-(1-(3-methylpyridin-2-yl)-1H-pyrazolo[3,4-d]pyrimidin-4-yloxy)propanamide], the concentration for a half-maximal effect (EC50) stood at 840 nM.
